Data taken from EP4790066A1, “GLP-1R/GIPR/GCGR TRIPLE AGONIST ANALOGUE AND USE THEREOF” (Shenzhen Bay Laboratory, priority 2023, dated 2025).
*1 amine or outer side, *2 acyl side, *3 side chain or, on linkers, in order; H or OH if unused. Where a SMILES comes first, the peptide text is derived from it. Bridges are numbered along the chain shown (N, C = ends). [ ]: non-standard residue; d: D form. X1 = O=C(O)CCCCCCCCCCCCCCCCCCC(=O)N[C@@H](CCCCNC(=O)COCCOCCNC(=O)COCCOCCNC(=O)CCC(=O)N(CCNC(=O)C[*:1])CCNC(=O)C[*:2])C(=O)O; tBuAla = CC(C)(C)C[C@H](N)C(=O)O; αMeL = CC(C)C[C@](C)(N)C(=O)O; Aib = CC(C)(N)C(=O)O

Experiments:
Assay type in all cases: cell-based
GCGR = target: T1, GCGR (Homo sapiens, UniProt P47871); assay: CreLuc method (CRE-luciferase reporter), 293HEK/pGM-CREB-L-Luc/GCGR pool; settings: 6 h incubation, read-out: EC50 (pM) for each receptor GCGR
T1 construct: expressed in transfected cells
T1 sequence (P47871 26-477, species assumed): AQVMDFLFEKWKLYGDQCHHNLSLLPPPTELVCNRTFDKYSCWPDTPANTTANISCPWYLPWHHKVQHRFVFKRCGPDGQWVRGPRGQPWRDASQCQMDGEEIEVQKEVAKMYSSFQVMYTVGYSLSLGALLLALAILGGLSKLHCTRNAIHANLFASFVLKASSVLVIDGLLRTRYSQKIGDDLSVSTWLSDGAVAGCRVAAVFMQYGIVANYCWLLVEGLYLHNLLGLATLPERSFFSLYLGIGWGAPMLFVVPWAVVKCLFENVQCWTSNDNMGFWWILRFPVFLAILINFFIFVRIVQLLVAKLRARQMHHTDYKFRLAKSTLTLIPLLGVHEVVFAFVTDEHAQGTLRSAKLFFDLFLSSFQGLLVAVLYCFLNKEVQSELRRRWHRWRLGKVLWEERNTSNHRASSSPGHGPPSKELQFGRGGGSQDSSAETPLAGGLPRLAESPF
Description: (§1) 1. Insulinotropic analogues can bind to the target receptor on the cell membrane, activate the cAMP response element (CRE), and initiate the expression of downstream luciferase. The expression level is positively correlated with the biological activity of the analogue being tested. After activation, luciferase substrate is added for chemiluminescence detection, and the luminescence intensity is determined to characterize the biological activity of the test compounds. Therefore, the target peptide derivatives (or polypeptide derivatives, i.e., TG1-TG94) prepared in Example 1 and Example 2 can be tested by the CreLuc method. The specific steps are as follows: The stably transfected cell lines HEK293/pGM-CREB-L-Luc/GLP-1R pool, HEK293/pGM-CREB-L-Luc/GIPR pool, and 293HEK/pGM-CREB-L-Luc/GCGR pool were constructed. […] The corresponding test cells were digested (1 min), dispersed by pipetting, and centrifuged (1000 rpm, 5 min). The culture medium was discarded, and the cells were resuspended in freestyle medium, centrifuged again, collected, and counted. The cells were then diluted to a cell density of 5 x 10^5 cells/mL and then added to the detection wells of a 384-well plate (40 µL/20,000 cells/well). Echo was used to add the corresponding analyte dilution series. The cell plate was incubated at 37°C and 5% CO2 for 6 h, then ONE-GLO (20 µL/well) was added for detection. It was kept in the dark for 3 min, then a chemiluminescent microplate reader was used for determination. The plate was read within 30 min, and the determination results were recorded. […] Table 3: EC50 values for target peptide derivatives

GIPR = target: T2, GIPR (Homo sapiens, UniProt P48546); assay: CreLuc method (CRE-luciferase reporter), HEK293/pGM-CREB-L-Luc/GIPR pool; settings: 6 h incubation, read-out: EC50 (pM) for each receptor GIPR
T2 construct: expressed in transfected cells
T2 sequence (P48546 22-466): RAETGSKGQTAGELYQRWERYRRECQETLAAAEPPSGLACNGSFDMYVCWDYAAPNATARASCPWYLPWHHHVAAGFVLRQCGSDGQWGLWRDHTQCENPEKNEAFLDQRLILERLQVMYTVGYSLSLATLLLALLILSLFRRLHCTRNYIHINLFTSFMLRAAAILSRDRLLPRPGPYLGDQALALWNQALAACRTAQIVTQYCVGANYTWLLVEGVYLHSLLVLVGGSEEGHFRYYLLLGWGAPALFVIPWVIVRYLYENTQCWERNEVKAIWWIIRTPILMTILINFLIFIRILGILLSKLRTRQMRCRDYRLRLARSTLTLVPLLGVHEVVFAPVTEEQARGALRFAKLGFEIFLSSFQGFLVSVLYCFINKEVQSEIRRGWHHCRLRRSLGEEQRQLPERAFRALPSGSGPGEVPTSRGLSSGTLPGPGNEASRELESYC
Description: as §1

GLP-1R = target: T3, GLP-1R (Homo sapiens, UniProt P43220); assay: CreLuc method (CRE-luciferase reporter), HEK293/pGM-CREB-L-Luc/GLP-1R pool; settings: 6 h incubation, read-out: EC50 (pM) for each receptor GLP-1R
T3 construct: expressed in transfected cells
T3 sequence (P43220 24-463, species assumed): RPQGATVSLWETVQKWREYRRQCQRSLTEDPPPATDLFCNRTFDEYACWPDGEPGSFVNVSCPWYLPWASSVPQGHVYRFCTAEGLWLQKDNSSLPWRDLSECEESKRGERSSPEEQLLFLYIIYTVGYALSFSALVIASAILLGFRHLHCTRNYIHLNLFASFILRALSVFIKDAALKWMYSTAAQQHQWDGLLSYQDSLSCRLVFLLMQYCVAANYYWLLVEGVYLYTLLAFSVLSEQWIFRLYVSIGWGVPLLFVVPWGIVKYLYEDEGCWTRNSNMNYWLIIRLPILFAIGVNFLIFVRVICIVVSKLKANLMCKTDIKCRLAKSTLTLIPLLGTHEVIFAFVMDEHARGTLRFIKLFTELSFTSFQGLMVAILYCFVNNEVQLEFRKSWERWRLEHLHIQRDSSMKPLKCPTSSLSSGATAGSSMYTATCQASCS
Description: as §1

SMILES	EC50 (GCGR) [pM]	EC50 (GIPR) [pM]	EC50 (GLP-1R) [pM]
CC[C@H](C)[C@H](NC(=O)[C@H](CO)NC(=O)[C@H](Cc1ccc(O)cc1)NC(=O)[C@H](CC(=O)O)NC(=O)[C@H](CO)NC(=O)[C@@H](NC(=O)[C@H](Cc1ccccc1)NC(=O)[C@@H](NC(=O)CNC(=O)[C@H](Cc1c[nH]cn1)NC(=O)C(C)(C)NC(=O)[C@@H](N)Cc1c[nH]cn1)[C@@H](C)O)[C@@H](C)O)C(=O)N[C@@H](Cc1ccc(O)cc1)C(=O)N[C@H]1CSCC(=O)NCCN(C(=O)CCC(=O)NCCOCCOCC(=O)NCCOCCOCC(=O)NCCCC[C@H](NC(=O)CCCCCCCCCCCCCCCCCCC(=O)O)C(=O)O)CCNC(=O)CSC[C@@H](C(=O)N[C@@H](Cc2ccccc2)C(=O)N[C@H](C(=O)N[C@@H](CCC(N)=O)C(=O)N[C@@H](Cc2c[nH]c3ccccc23)C(=O)N[C@@H](CC(C)C)C(=O)N[C@@H](CC(C)C)C(=O)N[C@@H](CCC(=O)O)C(=O)NCC(=O)NCC(=O)N2CCC[C@H]2C(=O)N[C@@H](CO)C(=O)N[C@@H](CO)C(=O)NCC(=O)N[C@@H](C)C(=O)N2CCC[C@H]2C(=O)N2CCC[C@H]2C(=O)N2CCC[C@H]2C(=O)N[C@@H](CO)C(N)=O)C(C)C)NC(=O)C(C)(C)NC(=O)[C@H](C)NC(=O)[C@H](Cc2ccc(O)cc2)NC(=O)[C@H](CCCNC(=N)N)NC(=O)[C@H](CCCCN)NC(=O)[C@H](CCC(=O)O)NC1=O [TG8]	836	426	243
CC(=O)NCCCC[C@H](NC(=O)[C@H](CCC(=O)O)NC(=O)[C@H](CC(C)C)NC(=O)[C@H](Cc1ccc(O)cc1)NC(=O)[C@H](CCCCN)NC(=O)[C@H](CO)NC(=O)[C@H](Cc1ccc(O)cc1)NC(=O)[C@H](CC(=O)O)NC(=O)[C@H](CO)NC(=O)[C@@H](NC(=O)[C@H](Cc1ccccc1)NC(=O)[C@@H](NC(=O)CNC(=O)[C@H](Cc1c[nH]cn1)NC(=O)C(C)(C)NC(=O)[C@@H](N)Cc1c[nH]cn1)[C@@H](C)O)[C@@H](C)O)C(=O)N[C@@H](CCCCN)C(=O)N[C@@H](Cc1ccc(O)cc1)C(=O)N[C@@H](C)C(=O)NC(C)(C)C(=O)N[C@H]1CSCC(=O)NCCN(C(=O)CCC(=O)NCCOCCOCC(=O)NCCOCCOCC(=O)NCCCC[C@H](NC(=O)CCCCCCCCCCCCCCCCCCC(=O)O)C(=O)O)CCNC(=O)CSC[C@@H](C(=O)NCC(=O)NCC(=O)N2CCC[C@H]2C(=O)N[C@@H](CO)C(=O)N[C@@H](CO)C(=O)NCC(=O)N[C@@H](C)C(=O)N2CCC[C@H]2C(=O)N2CCC[C@H]2C(=O)N2CCC[C@H]2C(=O)N[C@@H](CO)C(N)=O)NC(=O)[C@H](CC(C)C)NC(=O)[C@H](CC(C)C)NC(=O)[C@H](Cc2c[nH]c3ccccc23)NC(=O)[C@H](CCC(N)=O)NC(=O)[C@H](C(C)C)NC(=O)[C@H](Cc2ccccc2)NC1=O [TG14] (H-H[Aib]HGTFTSDYSKYLEK(Ac)KYA[Aib]CFVQWLLCGGPSSGAPPPS-NH2; linker 21-28 via X1)	277	752	311
CC[C@H](C)[C@@H]1NC(=O)[C@H](Cc2ccccc2)NC(=O)[C@@H](NC(=O)C(C)(C)NC(=O)[C@H](CCC(N)=O)NC(=O)[C@H](C)NC(=O)[C@H](CCCCNC(C)=O)NC(=O)[C@H](CCCCN)NC(=O)[C@H](CC(=O)O)NC(=O)[C@H](CC(C)C)NC(=O)[C@](C)(CC(C)C)NC(=O)[C@@H](NC(=O)[C@H](CO)NC(=O)[C@H](Cc2ccc(O)cc2)NC(=O)[C@H](CC(=O)O)NC(=O)[C@H](CO)NC(=O)[C@@H](NC(=O)[C@H](Cc2ccccc2)NC(=O)[C@@H](NC(=O)CNC(=O)[C@H](CCC(N)=O)NC(=O)[C@@H](CO)NC(=O)[C@@H](N)Cc2ccc(O)cc2)[C@@H](C)O)[C@@H](C)O)[C@@H](C)CC)CSCC(=O)NCCN(C(=O)CCC(=O)NCCOCCOCC(=O)NCCOCCOCC(=O)NCCCC[C@H](NC(=O)CCCCCCCCCCCCCCCCCCC(=O)O)C(=O)O)CCNC(=O)CSC[C@@H](C(=O)NCC(=O)NCC(=O)N2CCC[C@H]2C(=O)N[C@@H](CO)C(=O)N[C@@H](CO)C(=O)NCC(=O)N[C@@H](C)C(=O)N2CCC[C@H]2C(=O)N2CCC[C@H]2C(=O)N2CCC[C@H]2C(=O)N[C@@H](CO)C(N)=O)NC(=O)[C@H](CC(C)C)NC(=O)[C@H](CC(C)C)NC(=O)[C@H](Cc2ccc(O)cc2)NC(=O)[C@H](CCC(=O)O)NC1=O [TG22] (H-Y[dS]QGTFTSDYSI[αMeL]LDKK(Ac)AQ[Aib]CFIEYLLCGGPSSGAPPPS-NH2; linker 21-28 via X1)	205	18.3	665
CC[C@H](C)[C@@H]1NC(=O)[C@H](Cc2ccccc2)NC(=O)[C@@H](NC(=O)C(C)(C)NC(=O)[C@H](CCC(N)=O)NC(=O)[C@H](C)NC(=O)[C@H](CCCCNC(C)=O)NC(=O)[C@H](CCCCN)NC(=O)[C@H](CC(=O)O)NC(=O)[C@H](CC(C)C)NC(=O)[C@](C)(CC(C)C)NC(=O)[C@@H](NC(=O)[C@H](CO)NC(=O)[C@H](Cc2ccc(O)cc2)NC(=O)[C@H](CC(=O)O)NC(=O)[C@H](CO)NC(=O)[C@@H](NC(=O)[C@](C)(Cc2ccccc2)NC(=O)[C@@H](NC(=O)CNC(=O)[C@H](CCC(N)=O)NC(=O)C(C)(C)NC(=O)[C@@H](N)Cc2ccc(O)cc2)[C@@H](C)O)[C@@H](C)O)[C@@H](C)CC)CSCC(=O)NCCN(C(=O)CCC(=O)NCCOCCOCC(=O)NCCOCCOCC(=O)NCCCC[C@H](NC(=O)CCCCCCCCCCCCCCCCCCC(=O)O)C(=O)O)CCNC(=O)CSC[C@@H](C(=O)NCC(=O)NCC(=O)N2CCC[C@H]2C(=O)N[C@@H](CO)C(=O)N[C@@H](CO)C(=O)NCC(=O)N[C@@H](C)C(=O)N2CCC[C@H]2C(=O)N2CCC[C@H]2C(=O)N2CCC[C@H]2C(=O)N[C@@H](CO)C(N)=O)NC(=O)[C@H](CC(C)C)NC(=O)[C@H](CC(C)C)NC(=O)[C@H](Cc2ccc(O)cc2)NC(=O)[C@H](CCC(=O)O)NC1=O [TG23]	109	75.6	92.9
CC[C@H](C)[C@@H]1NC(=O)[C@H](Cc2ccccc2)NC(=O)[C@@H](NC(=O)C(C)(C)NC(=O)[C@H](CCC(N)=O)NC(=O)[C@H](C)NC(=O)[C@H](CCCCNC(C)=O)NC(=O)[C@H](CCCCN)NC(=O)[C@H](CC(=O)O)NC(=O)[C@H](CC(C)(C)C)NC(=O)[C@](C)(CC(C)C)NC(=O)[C@@H](NC(=O)[C@H](CO)NC(=O)[C@H](Cc2ccc(O)cc2)NC(=O)[C@H](CC(=O)O)NC(=O)[C@H](CO)NC(=O)[C@@H](NC(=O)[C@H](Cc2ccccc2)NC(=O)[C@@H](NC(=O)CNC(=O)[C@H](CCC(N)=O)NC(=O)C(C)(C)NC(=O)[C@@H](N)Cc2ccc(O)cc2)[C@@H](C)O)[C@@H](C)O)[C@@H](C)CC)CSCC(=O)NCCN(C(=O)CCC(=O)NCCOCCOCC(=O)NCCOCCOCC(=O)NCCCC[C@H](NC(=O)CCCCCCCCCCCCCCCCCCC(=O)O)C(=O)O)CCNC(=O)CSC[C@@H](C(=O)NCC(=O)NCC(=O)N2CCC[C@H]2C(=O)N[C@@H](CO)C(=O)N[C@@H](CO)C(=O)NCC(=O)N[C@@H](C)C(=O)N2CCC[C@H]2C(=O)N2CCC[C@H]2C(=O)N2CCC[C@H]2C(=O)N[C@@H](CO)C(N)=O)NC(=O)[C@H](CC(C)C)NC(=O)[C@H](CC(C)C)NC(=O)[C@H](Cc2ccc(O)cc2)NC(=O)[C@H](CCC(=O)O)NC1=O [TG26] (H-Y[Aib]QGTFTSDYSI[αMeL][tBuAla]DKK(Ac)AQ[Aib]CFIEYLLCGGPSSGAPPPS-NH2; linker 21-28 via X1)	360	59.4	149
